Measured values: ChEMBL document CHEMBL5303304, “EUbOPEN Chemogenomics Library - IncuCyte” (2023)

Key:
Assay type in all cases: toxicity, cell-based
Fibroblast = test: Incucyte cell viability with human fibroblast; details: 10 µM, compound concentration 10 uM
HEK-293T = test: Incucyte cell viability with HEK293T; details: human, 10 µM, compound concentration 10 uM
U2OS = test: Incucyte cell viability with U2OS; details: human, 10 µM, compound concentration 10 uM
Also: unitless GR value; below 1 slowed growth and below 0 cell loss.

Row | Structure (SMILES) | Growth Rate (Fibroblast; 6 h, replicate number 1) | Growth Rate (Fibroblast; 12 h, replicate number 2) | Growth Rate (Fibroblast; 18 h, replicate number 1) | Growth Rate (Fibroblast; 18 h, replicate number 2) | Growth Rate (Fibroblast; 24 h, replicate number 1) | Growth Rate (Fibroblast; 24 h, replicate number 2) | Growth Rate (HEK-293T; 0 h, replicate number 1) | Growth Rate (HEK-293T; 6 h, replicate number 2) | Growth Rate (HEK-293T; 12 h, replicate number 2) | Growth Rate (HEK-293T; 18 h, replicate number 2) | Growth Rate (HEK-293T; 24 h, replicate number 1) | Growth Rate (HEK-293T; 24 h, replicate number 2) | Growth Rate (U2OS; 6 h, replicate number 1) | Growth Rate (U2OS; 12 h, replicate number 1) | Growth Rate (U2OS; 18 h, replicate number 1) | Growth Rate (U2OS; 24 h, replicate number 1) | Growth Rate (Fibroblast; 0 h, replicate number 1) | Growth Rate (Fibroblast; 6 h, replicate number 2) | Growth Rate (HEK-293T; 0 h, replicate number 2) | Growth Rate (U2OS; 18 h, replicate number 2) | other results
1 | Cc1n[nH]c2ncc(C(=O)N3CCC[C@H]3c3ccc(Cl)cc3)cc12 | 0.75 | 0.76 | 0.66 | 0.99 | 0.73 | 0.92 | 0.29 | 0.58 | 0.96 | 1 | 1 | 0.89 | 0.34 | 0.67 | 0.94 | 0.91 |  |  |  |  | 
2 | Cn1cc(-c2ccc(N(C(=O)NCc3ccccc3)[C@H]3CC[C@H](Nc4ccc(C#N)cn4)CC3)cc2)ccc1=O | 0.65 | -0.01 | 0.17 | -0.04 | 0.16 | -0.08 | -0.73 | -0.56 | -0.56 | -0.48 | -0.14 | -0.39 | 0.45 | 0.28 | 0.12 | -0.14 | 0.84 | 0.48 | 0.96 | 0.06 | Growth Rate (Fibroblast; 0 h, replicate number 2): -0.77; Growth Rate (Fibroblast; 12 h, replicate number 1): 0.45; Growth Rate (HEK-293T; 6 h, replicate number 1): -0.2; Growth Rate (HEK-293T; 12 h, replicate number 1): -0.28; Growth Rate (HEK-293T; 18 h, replicate number 1): -0.21; Growth Rate (U2OS; 6 h, replicate number 2): 0.58; Growth Rate (U2OS; 24 h, replicate number 2): -0.05
3 | Fc1cccc(-n2cnc3c(NCc4nc5ccc(F)c(F)c5[nH]4)nc(N4CCOCC4)nc32)c1 | -0.08 | -0.11 | 0.04 | -0.03 | -0.01 | 0.03 | -0.62 | -0.21 |  | -0.31 | -0.21 | -0.25 | 0.56 | 0.06 | -0.23 | -0.23 |  | -0.22 |  | 0.61 | Growth Rate (Fibroblast; 12 h, replicate number 1): 0.02; Growth Rate (HEK-293T; 6 h, replicate number 1): -0.14; Growth Rate (HEK-293T; 12 h, replicate number 1): -0.36; Growth Rate (HEK-293T; 18 h, replicate number 1): -0.28; Growth Rate (U2OS; 24 h, replicate number 2): 0.38
4 | Fc1ccc(-c2nc(-c3c(F)cccc3F)[nH]c2-c2ccncc2)cc1 |  |  |  |  |  |  | -0.47 | 0.27 | 0.5 | 0.62 |  | 0.68 |  |  |  |  | -0.99 |  | 0.65 | 0.97 | Growth Rate (Fibroblast; 0 h, replicate number 2): 0.29; Growth Rate (U2OS; 0 h, replicate number 1): -1; Growth Rate (U2OS; 24 h, replicate number 2): 0.76
5 | CNC(=O)c1c(F)cccc1Nc1nc(Nc2cc3c(cc2OC)CCN3C(=O)CN(C)C)nc2[nH]ccc12 | 0.23 | -0.65 | -0.23 | -0.62 | -0.23 | -0.6 | -1 |  | 0.75 | -0.03 |  | -0.14 |  | 0.02 | -0.42 | -0.45 | -0.92 | -0.71 | 0.35 | -0.11 | Growth Rate (Fibroblast; 12 h, replicate number 1): 0.04; Growth Rate (U2OS; 0 h, replicate number 1): -0.99; Growth Rate (U2OS; 0 h, replicate number 2): -1; Growth Rate (U2OS; 12 h, replicate number 2): 0.29; Growth Rate (U2OS; 24 h, replicate number 2): -0.14
6 | CN1Cc2nccc(-c3cn(C)nc3-c3ccc(F)cc3)c2C1=O.Cl |  |  |  |  |  |  | -0.38 |  |  |  |  |  |  |  | 0.99 |  |  |  | 0.69 |  | Growth Rate (Fibroblast; 0 h, replicate number 2): 0.28; Growth Rate (U2OS; 0 h, replicate number 1): 0.53; Growth Rate (U2OS; 0 h, replicate number 2): 0.96
7 | CC(=O)c1c(C)c2cnc(Nc3ccn(C)n3)nc2n(C2CCCC2)c1=O |  |  | 0.8 |  |  |  | 0.51 | 0.76 | 0.81 | 0.79 | 0.79 | 0.83 | 0.67 | 0.06 |  |  |  | 0.93 |  | 0.92 | Growth Rate (HEK-293T; 6 h, replicate number 1): 0.81; Growth Rate (HEK-293T; 12 h, replicate number 1): 0.97; Growth Rate (HEK-293T; 18 h, replicate number 1): 0.9; Growth Rate (U2OS; 6 h, replicate number 2): 0.96; Growth Rate (U2OS; 12 h, replicate number 2): 0.99
8 | O=C1Nc2ccc(I)cc2/C1=C/c1cc(Br)c(O)c(Br)c1 |  |  |  |  |  |  | -0.98 | 0.9 | 0.98 | 0.88 |  | 0.86 |  |  |  |  | -1 |  | 0.38 |  | Growth Rate (U2OS; 0 h, replicate number 1): -0.98; Growth Rate (U2OS; 0 h, replicate number 2): 0.76
